Laboratory results from patent US6479519B1, “Substituted anilides” (Aventis Pharma Limited, priority 1997, dated 2002).

| melting point | SMILES |
| --- | --- |
| 220 to 222 °C | COc1cc(CC(=O)Nc2ccc([C@@H](CC(=O)O)NC(=O)CCCC(=O)O)cc2)ccc1NC(=O)Nc1ccccc1C [Example 5(h), (R)-3-(4-carboxybutanoyl-amino)-3-(4-{3-methoxy-4-[3-(2-methylphenyl)ureido]phenylacetylamino}-phenyl)-propanoic acid] |
| 105 to 108 °C (dec.) | COc1cc(N(C(C)=O)c2ccc([C@@H](CC(=O)O)NC(=O)CN)cc2)ccc1NC(=O)Nc1ccccc1C [Example 10, (R)-3-[(2-amino-acetyl)amino]-3-(4-{3-methoxy-4-[3-(2-methylphenyl)ureido]phenyl-acetylamino}phenyl)propanoic acid] |
| 190 °C (dec.) | COc1cc(CC(=O)Nc2ccc([C@@H](CC(=O)O)NC(=O)c3ccc[n+]([O-])c3)cc2)ccc1NC(=O)Nc1ccccc1C [Example 11, (R)-3-[(1-oxido-pyridine-3-carbonyl)amino]-3-(4-{3-methoxy-4-[3-(2-methylphenyl)ureido]-phenylacetylamino}phenyl)-propanoic acid] |
